{"source": "patent US20220088016A1", "about": "“CANCER TREATMENT USING MULTI-TARGETED KINASE INHIBITOR IN COMBINATION OF PROTEIN KINASE BIOMARKERS” (ZHEJIANG CROWNMAB BIOTECH CO. LTD., priority 2019, published 2022)", "key": {"[1]": {"target": "T1, NEK5 (Homo sapiens, UniProt Q6P3R8)", "T1 construct": "T7 phage fusion (said for most assays); made in house", "test": "Kinase profiling", "format": "binding", "settings": "read-out: % Ctrl @ 1000 nM"}, "[2]": {"target": "TBK1 (Homo sapiens, UniProt Q9UHD2)", "sequence (Q9UHD2 whole entry)": "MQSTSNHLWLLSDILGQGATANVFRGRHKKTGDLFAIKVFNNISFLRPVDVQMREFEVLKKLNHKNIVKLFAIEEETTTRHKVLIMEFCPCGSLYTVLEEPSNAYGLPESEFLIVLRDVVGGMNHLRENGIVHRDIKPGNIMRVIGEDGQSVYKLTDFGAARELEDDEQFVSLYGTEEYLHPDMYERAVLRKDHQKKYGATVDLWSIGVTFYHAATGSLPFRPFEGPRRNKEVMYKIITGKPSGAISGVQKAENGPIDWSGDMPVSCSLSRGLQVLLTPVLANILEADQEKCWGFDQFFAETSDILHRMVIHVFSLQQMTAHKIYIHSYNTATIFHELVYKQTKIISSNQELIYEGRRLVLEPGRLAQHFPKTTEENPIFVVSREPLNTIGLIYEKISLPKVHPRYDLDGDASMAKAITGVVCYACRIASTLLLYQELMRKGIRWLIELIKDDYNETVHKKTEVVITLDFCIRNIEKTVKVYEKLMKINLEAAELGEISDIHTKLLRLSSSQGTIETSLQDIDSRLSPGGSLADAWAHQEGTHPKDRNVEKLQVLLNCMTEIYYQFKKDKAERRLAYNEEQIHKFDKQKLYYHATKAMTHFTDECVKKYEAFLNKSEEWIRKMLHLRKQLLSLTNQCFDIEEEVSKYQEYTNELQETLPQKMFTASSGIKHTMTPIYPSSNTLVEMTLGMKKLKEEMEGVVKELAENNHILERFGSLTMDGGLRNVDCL", "test": "Kinase profiling", "format": "binding", "settings": "read-out: % Ctrl @ 1000 nM"}, "[3]": {"target": "FLT3 (D835H) (Homo sapiens, UniProt P36888, D835H)", "test": "Kinase profiling", "format": "binding", "settings": "read-out: % Ctrl @ 1000 nM"}, "[4]": {"target": "T2, NEK11 (Homo sapiens, UniProt Q8NG66)", "T2 construct": "T7 phage fusion (said for most assays); made in house", "test": "Kinase profiling", "format": "binding", "settings": "read-out: % Ctrl @ 1000 nM"}, "[5]": {"target": "CLK4 (Homo sapiens, UniProt Q9HAZ1)", "test": "Kinase profiling", "format": "binding", "settings": "read-out: % Ctrl @ 1000 nM"}, "[6]": {"target": "TIE2 (Homo sapiens, UniProt Q02763)", "test": "Kinase profiling", "format": "binding", "settings": "read-out: % Ctrl @ 1000 nM"}, "[7]": {"target": "BRSK2 (Homo sapiens, UniProt Q8IWQ3)", "test": "Kinase profiling", "format": "binding", "settings": "read-out: % Ctrl @ 1000 nM"}, "[8]": {"target": "PIP5K1C (Homo sapiens, UniProt O60331)", "test": "Kinase profiling", "format": "binding", "settings": "read-out: % Ctrl @ 1000 nM"}, "[9]": {"system": "403 non-mutant kinases", "test": "Selectivity Score from kinase profiling", "quoted_text": "Streptavidin-coated magnetic beads were treated with biotinylated small molecule ligands of the kinases for 30 minutes at room temperature to generate affinity resins for kinase assays. The liganded beads were blocked with excess biotin and washed with blocking buffer (SeaBlock (Pierce), 1% BSA, 0.05% Tween 20, 1 mM DTT) to remove unbound ligand and to reduce non-specific phage binding. Binding reactions were assembled by combining kinases, liganded affinity beads, and test compounds in 1× binding buffer (20% SeaBlock, 0.17×PBS, 0.05% Tween 20, 6 mM DTT). Test compounds were prepared as 40× stocks in 100% DMSO and directly diluted into the assay. All reactions were performed in polypropylene 384-well plates in a final volume of 0.04 ml. The assay plates were incubated at room temperature with shaking for 1 hour and the affinity beads were washed with wash buffer (1×PBS, 0.05% Tween 20). The beads were then re-suspended in elution buffer (1×PBS, 0.05% Tween 20, 0.5 μM non-biotinylated affinity ligand) and incubated at room temperature with shaking for 30 minutes. The kinase concentration in the eluates was measured by qPCR.\nSelectivity Score or S-score is a quantitative measure of compound selectivity. It is calculated by dividing the number of kinases that compounds bind to by the total number of distinct kinases tested, excluding mutant variants.\nS=Number of hits/Number of assays\nThis value can be calculated using % Ctrl as a potency threshold (below) and provides a quantitative method of describing compound selectivity to facilitate comparison of different compounds.\nS(35)=(number of non-mutant kinases with % Ctrl<35)/(number of non-mutant kinases tested)\nS(10)=(number of non-mutant kinases with % Ctrl<10)/(number of non-mutant kinases tested)\nS(1)=(number of non-mutant kinases with % Ctrl<1)/(number of non-mutant kinases tested)"}, "[10]": {"target": "PIP5K2C (Homo sapiens, UniProt Q8TBX8)", "sequence (Q8TBX8 whole entry)": "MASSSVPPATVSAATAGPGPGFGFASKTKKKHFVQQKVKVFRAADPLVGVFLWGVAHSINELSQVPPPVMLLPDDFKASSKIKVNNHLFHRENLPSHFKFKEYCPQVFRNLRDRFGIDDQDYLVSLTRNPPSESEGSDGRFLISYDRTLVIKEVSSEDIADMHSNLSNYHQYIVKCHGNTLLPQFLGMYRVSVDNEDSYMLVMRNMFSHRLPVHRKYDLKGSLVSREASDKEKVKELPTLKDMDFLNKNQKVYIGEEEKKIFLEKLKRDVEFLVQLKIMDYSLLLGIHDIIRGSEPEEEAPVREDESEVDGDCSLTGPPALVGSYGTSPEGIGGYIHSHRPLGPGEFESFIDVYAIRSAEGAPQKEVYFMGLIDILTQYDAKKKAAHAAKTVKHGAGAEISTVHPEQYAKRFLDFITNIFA", "test": "Kinase profiling", "format": "binding", "settings": "read-out: % Ctrl @ 1000 nM"}, "[11]": {"target": "PAK7 (Homo sapiens, UniProt Q9P286)", "test": "Kinase profiling", "format": "binding", "settings": "read-out: % Ctrl @ 1000 nM"}, "[12]": {"target": "TLK1 (Homo sapiens, UniProt Q9UKI8)", "test": "Kinase profiling", "format": "binding", "settings": "read-out: % Ctrl @ 1000 nM"}, "[13]": {"target": "JAK1 (JH1domain-catalytic) (Homo sapiens, UniProt P23458)", "sequence (P23458 875-1153 limits assumed)": "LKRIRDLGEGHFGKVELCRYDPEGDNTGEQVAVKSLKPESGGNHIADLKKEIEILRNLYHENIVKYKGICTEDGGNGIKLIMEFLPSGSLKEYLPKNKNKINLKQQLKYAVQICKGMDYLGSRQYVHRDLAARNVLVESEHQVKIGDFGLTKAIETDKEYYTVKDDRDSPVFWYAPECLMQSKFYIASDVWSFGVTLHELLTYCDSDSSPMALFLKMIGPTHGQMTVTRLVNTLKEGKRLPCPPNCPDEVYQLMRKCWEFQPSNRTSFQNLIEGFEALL", "test": "Kinase profiling", "format": "binding", "settings": "read-out: % Ctrl @ 1000 nM"}, "[14]": {"target": "HCK (Homo sapiens, UniProt P08631)", "test": "Kinase profiling", "format": "binding", "settings": "read-out: % Ctrl @ 1000 nM"}, "[15]": {"target": "ABL1 (T315I)-phosphorylated (Homo sapiens, UniProt P00519, T315I)", "test": "Kinase profiling", "format": "binding", "settings": "read-out: % Ctrl @ 1000 nM"}, "[16]": {"target": "ERK2 (Homo sapiens, UniProt P28482)", "sequence (P28482 whole entry)": "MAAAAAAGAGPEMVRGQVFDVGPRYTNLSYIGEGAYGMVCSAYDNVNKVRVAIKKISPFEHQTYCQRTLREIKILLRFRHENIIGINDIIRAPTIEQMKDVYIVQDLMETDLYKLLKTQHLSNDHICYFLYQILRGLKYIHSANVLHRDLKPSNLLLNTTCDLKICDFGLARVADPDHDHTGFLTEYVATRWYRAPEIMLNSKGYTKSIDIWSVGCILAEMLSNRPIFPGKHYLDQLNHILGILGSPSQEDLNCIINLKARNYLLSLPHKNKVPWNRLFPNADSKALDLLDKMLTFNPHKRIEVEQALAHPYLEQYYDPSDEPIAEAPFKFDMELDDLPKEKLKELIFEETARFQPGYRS", "test": "Kinase profiling", "format": "binding", "settings": "read-out: % Ctrl @ 1000 nM"}, "[17]": {"target": "PFCDPK1 (P.falciparum) (Plasmodium falciparum, UniProt P62344)", "test": "Kinase profiling", "format": "binding", "settings": "read-out: % Ctrl @ 1000 nM"}, "[18]": {"target": "ACVR2B (Homo sapiens, UniProt Q13705)", "test": "Kinase profiling", "format": "binding", "settings": "read-out: % Ctrl @ 1000 nM"}, "[19]": {"target": "PIP5K2B (Homo sapiens, UniProt P78356)", "sequence (P78356 whole entry)": "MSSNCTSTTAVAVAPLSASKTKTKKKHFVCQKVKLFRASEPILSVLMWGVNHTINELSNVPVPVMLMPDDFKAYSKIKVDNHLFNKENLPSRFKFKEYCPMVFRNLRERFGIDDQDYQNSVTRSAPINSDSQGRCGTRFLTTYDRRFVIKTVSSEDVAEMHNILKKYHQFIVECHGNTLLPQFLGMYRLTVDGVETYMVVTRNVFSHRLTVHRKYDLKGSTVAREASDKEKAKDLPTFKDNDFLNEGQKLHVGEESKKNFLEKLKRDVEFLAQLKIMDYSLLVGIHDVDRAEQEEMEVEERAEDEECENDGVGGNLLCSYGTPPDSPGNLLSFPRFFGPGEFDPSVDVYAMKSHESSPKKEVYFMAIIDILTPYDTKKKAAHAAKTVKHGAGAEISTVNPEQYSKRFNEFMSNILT", "test": "Kinase profiling", "format": "binding", "settings": "read-out: % Ctrl @ 1000 nM"}, "[20]": {"target": "CDC2L2 (Homo sapiens, UniProt Q9UQ88)", "test": "Kinase profiling", "format": "binding", "settings": "read-out: % Ctrl @ 1000 nM"}, "[21]": {"target": "TAOK3 (Homo sapiens, UniProt Q9H2K8)", "test": "Kinase profiling", "format": "binding", "settings": "read-out: % Ctrl @ 1000 nM"}, "[22]": {"target": "T3, MKNK1 (Homo sapiens, UniProt Q9BUB5)", "T3 construct": "T7 phage fusion (stated for most kinases of the panel only); made in house; host or cells: T7 phage in E. coli (BL21-derived) or HEK-293 cells", "test": "Kinase profiling", "format": "binding", "settings": "read-out: % Ctrl @ 1000 nM"}, "[23]": {"target": "AMPK-alpha2 (Homo sapiens, UniProt P54646)", "test": "Kinase profiling", "format": "binding", "settings": "read-out: % Ctrl @ 1000 nM"}, "[24]": {"target": "T4, MST4 (Homo sapiens, UniProt Q9P289)", "T4 construct": "T7 phage fusion (said for most assays); made in house", "T4 sequence (Q9P289 whole entry, the tested form may be a part)": "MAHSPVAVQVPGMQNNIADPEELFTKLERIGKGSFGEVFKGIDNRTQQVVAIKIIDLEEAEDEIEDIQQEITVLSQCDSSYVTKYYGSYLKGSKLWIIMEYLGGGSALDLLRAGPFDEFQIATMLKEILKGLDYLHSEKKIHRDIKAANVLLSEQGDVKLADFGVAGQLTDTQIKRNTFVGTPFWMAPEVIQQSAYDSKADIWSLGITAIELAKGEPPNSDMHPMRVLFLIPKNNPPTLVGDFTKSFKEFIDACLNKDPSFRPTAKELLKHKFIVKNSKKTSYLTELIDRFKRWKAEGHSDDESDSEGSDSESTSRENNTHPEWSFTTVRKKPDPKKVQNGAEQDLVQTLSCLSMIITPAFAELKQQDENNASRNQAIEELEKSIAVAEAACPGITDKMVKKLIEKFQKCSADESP", "test": "Kinase profiling", "format": "binding", "settings": "read-out: % Ctrl @ 1000 nM"}, "[25]": {"target": "PAK4 (Homo sapiens, UniProt O96013)", "test": "Kinase profiling", "format": "binding", "settings": "read-out: % Ctrl @ 1000 nM"}, "[26]": {"system": "FLT3 (ITD)", "test": "Kinase profiling", "format": "binding"}, "[27]": {"system": "MC-38 tumor", "test": "Subcutaneous MC-38 murine colon cancer model", "format": "in vivo, mouse", "settings": "20 mg/kg first 11 days, then 10 mg/kg", "description": "The MC-38 tumor cells were maintained in vitro with RPMI1640 medium supplemented with 10% fetal bovine serum at 37° C. in an atmosphere of 5% CO2 in air. Each mouse was inoculated subcutaneously after shaving at the right flank region with MC-38 tumor cells (1×10e6) in 0.1 mL of PBS for tumor development. The randomization started when the mean tumor size reached approximately 100 mm^3. Group 1 mice were treated vehicle and group 2 mice were treated 20 mg/kg CBT-102 at first 11 days and reduced to 10 mg/kg afterwards."}, "[28]": {"target": "T5, MST2 (Homo sapiens, UniProt Q13188)", "T5 construct": "T7 phage fusion (stated for most kinases of the panel only); made in house; host or cells: T7 phage in E. coli (BL21-derived) or HEK-293 cells", "T5 sequence (Q13188 whole entry, the tested form may be a part)": "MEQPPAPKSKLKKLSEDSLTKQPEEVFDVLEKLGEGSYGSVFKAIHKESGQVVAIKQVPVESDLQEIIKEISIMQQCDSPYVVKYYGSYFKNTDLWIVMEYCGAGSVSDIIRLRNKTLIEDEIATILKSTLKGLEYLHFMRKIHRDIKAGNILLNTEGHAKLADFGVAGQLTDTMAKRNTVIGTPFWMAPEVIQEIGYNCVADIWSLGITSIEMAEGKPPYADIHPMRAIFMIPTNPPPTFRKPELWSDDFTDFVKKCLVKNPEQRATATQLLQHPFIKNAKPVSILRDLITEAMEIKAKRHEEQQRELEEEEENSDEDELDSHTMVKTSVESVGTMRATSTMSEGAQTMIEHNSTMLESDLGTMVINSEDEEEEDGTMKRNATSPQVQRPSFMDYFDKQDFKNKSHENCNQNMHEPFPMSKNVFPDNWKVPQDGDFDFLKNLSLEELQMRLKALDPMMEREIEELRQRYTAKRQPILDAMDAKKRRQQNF", "test": "Kinase profiling", "format": "binding", "settings": "read-out: % Ctrl @ 1000 nM"}, "[29]": {"target": "CAMK2A (Homo sapiens, UniProt Q9UQM7)", "test": "Kinase profiling", "format": "binding", "settings": "read-out: % Ctrl @ 1000 nM"}, "[30]": {"target": "CHEK1 (Homo sapiens, UniProt O14757)", "test": "Kinase profiling", "format": "binding", "settings": "read-out: % Ctrl @ 1000 nM"}, "[31]": {"target": "IRAK1 (Homo sapiens, UniProt P51617)", "sequence (P51617 whole entry)": "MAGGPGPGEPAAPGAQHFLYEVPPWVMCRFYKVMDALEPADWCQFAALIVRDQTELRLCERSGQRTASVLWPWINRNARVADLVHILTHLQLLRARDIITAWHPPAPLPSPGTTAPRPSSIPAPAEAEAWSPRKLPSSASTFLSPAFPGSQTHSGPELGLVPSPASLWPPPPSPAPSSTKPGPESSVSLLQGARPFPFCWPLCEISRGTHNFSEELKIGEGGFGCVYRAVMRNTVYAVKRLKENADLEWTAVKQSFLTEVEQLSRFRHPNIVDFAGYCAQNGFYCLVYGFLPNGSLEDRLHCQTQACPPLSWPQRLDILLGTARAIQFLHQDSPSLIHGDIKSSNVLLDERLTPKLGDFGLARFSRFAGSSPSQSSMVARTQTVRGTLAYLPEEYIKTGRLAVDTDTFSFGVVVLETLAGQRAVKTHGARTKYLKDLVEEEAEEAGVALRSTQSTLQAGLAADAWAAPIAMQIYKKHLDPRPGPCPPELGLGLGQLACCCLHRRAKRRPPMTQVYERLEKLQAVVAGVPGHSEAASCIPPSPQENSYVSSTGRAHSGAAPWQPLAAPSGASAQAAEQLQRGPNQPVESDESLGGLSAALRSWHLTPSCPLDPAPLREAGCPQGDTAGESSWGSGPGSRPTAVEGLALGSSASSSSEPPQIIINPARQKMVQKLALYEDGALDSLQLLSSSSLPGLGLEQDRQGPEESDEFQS", "test": "Kinase profiling", "format": "binding", "settings": "read-out: % Ctrl @ 1000 nM"}, "[32]": {"target": "JNK2 (Homo sapiens, UniProt P45984)", "sequence (P45984 whole entry)": "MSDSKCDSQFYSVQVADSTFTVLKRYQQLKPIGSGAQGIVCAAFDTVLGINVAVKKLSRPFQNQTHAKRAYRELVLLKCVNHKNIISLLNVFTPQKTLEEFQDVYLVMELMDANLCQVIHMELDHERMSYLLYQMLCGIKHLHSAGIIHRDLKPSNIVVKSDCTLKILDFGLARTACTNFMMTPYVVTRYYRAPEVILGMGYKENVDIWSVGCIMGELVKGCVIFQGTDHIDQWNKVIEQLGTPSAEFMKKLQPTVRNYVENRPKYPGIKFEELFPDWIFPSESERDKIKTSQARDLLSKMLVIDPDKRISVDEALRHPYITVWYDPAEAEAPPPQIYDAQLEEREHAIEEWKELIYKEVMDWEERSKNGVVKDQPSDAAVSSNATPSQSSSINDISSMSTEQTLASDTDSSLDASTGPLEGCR", "test": "Kinase profiling", "format": "binding", "settings": "read-out: % Ctrl @ 1000 nM"}, "[33]": {"target": "T6, MELK (Homo sapiens, UniProt Q14680)", "T6 construct": "T7 phage fusion (stated for most kinases of the panel only); made in house; host or cells: T7 phage in E. coli (BL21-derived) or HEK-293 cells", "test": "Kinase profiling", "format": "binding", "settings": "read-out: % Ctrl @ 1000 nM"}, "[34]": {"target": "PKMYT1 (Homo sapiens, UniProt Q99640)", "test": "Kinase profiling", "format": "binding", "settings": "read-out: % Ctrl @ 1000 nM"}, "[35]": {"target": "RIPK1 (Homo sapiens, UniProt Q13546)", "sequence (Q13546 whole entry)": "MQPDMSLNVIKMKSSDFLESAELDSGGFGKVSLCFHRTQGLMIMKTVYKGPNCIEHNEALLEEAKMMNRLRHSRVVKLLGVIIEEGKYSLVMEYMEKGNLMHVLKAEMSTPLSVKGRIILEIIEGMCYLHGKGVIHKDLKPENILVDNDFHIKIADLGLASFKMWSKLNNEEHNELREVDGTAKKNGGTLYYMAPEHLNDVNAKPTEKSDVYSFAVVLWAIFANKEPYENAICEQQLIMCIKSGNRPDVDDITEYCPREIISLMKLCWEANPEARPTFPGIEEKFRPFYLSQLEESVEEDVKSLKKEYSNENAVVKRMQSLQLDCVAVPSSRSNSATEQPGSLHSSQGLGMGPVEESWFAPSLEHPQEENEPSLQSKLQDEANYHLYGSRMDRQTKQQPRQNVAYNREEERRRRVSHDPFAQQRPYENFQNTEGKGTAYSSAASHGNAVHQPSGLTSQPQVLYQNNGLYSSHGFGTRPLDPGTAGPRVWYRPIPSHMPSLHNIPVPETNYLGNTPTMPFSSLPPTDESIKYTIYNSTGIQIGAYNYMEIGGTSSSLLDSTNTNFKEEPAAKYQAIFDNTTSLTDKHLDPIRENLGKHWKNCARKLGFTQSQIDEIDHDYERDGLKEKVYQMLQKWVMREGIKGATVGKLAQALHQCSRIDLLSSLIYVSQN", "test": "Kinase profiling", "format": "binding", "settings": "read-out: % Ctrl @ 1000 nM"}}, "note": "Where “and” joins values, the source holds several entries; their conditions need not be identical. Equal entries are not always repeated.", "data": [{"molecule": "Cc1cc(Oc2cc(NC(=O)C3CC3)ncn2)ccc1NC(=O)Nc1ccc(Cl)c(C(F)(F)F)c1", "note": "[CBT-102]", "values": [{"measurement": "remaining activity at 1 µM", "setting": "[1]", "result": 96, "unit": "%"}, {"measurement": "remaining activity at 1 µM", "setting": "[2]", "result": 98, "unit": "%"}, {"measurement": "remaining activity at 1 µM", "setting": "[3]", "result": 42, "unit": "%"}, {"measurement": "remaining activity at 1 µM", "setting": "[4]", "result": 100, "unit": "%"}, {"measurement": "remaining activity at 1 µM", "setting": "[5]", "result": 95, "unit": "%"}, {"measurement": "remaining activity at 1 µM", "setting": "[6]", "result": 16, "unit": "%"}, {"measurement": "remaining activity at 1 µM", "setting": "[7]", "result": 100, "unit": "%"}, {"measurement": "remaining activity at 1 µM", "setting": "[8]", "result": 93, "unit": "%"}, {"measurement": "Selectivity Score S (1)", "setting": "[9]; % Ctrl<1, 1000 nM", "result": 0.032}, {"measurement": "Selectivity Score S (10)", "setting": "[9]; % Ctrl<10, 1000 nM", "result": 0.089}, {"measurement": "Selectivity Score S (35)", "setting": "[9]; % Ctrl<35, 1000 nM", "result": 0.151}, {"measurement": "Number of Hits, S (1)", "setting": "[9]; non-mutant kinases with % Ctrl<1, 1000 nM", "result": 13}, {"measurement": "Number of Hits, S (10)", "setting": "[9]; non-mutant kinases with % Ctrl<10, 1000 nM", "result": 36}, {"measurement": "Number of Hits, S (35)", "setting": "[9]; non-mutant kinases with % Ctrl<35, 1000 nM", "result": 61}, {"measurement": "remaining activity at 1 µM", "setting": "[10]", "result": 85, "unit": "%"}, {"measurement": "remaining activity at 1 µM", "setting": "[11]", "result": 91, "unit": "%"}, {"measurement": "remaining activity at 1 µM", "setting": "[12]", "result": 100, "unit": "%"}, {"measurement": "remaining activity at 1 µM", "setting": "[13]", "result": 78, "unit": "%"}, {"measurement": "remaining activity at 1 µM", "setting": "[14]", "result": 54, "unit": "%"}, {"measurement": "remaining activity at 1 µM", "setting": "[15]", "result": 51, "unit": "%"}, {"measurement": "remaining activity at 1 µM", "setting": "[16]", "result": 97, "unit": "%"}, {"measurement": "remaining activity at 1 µM", "setting": "[17]", "result": 53, "unit": "%"}, {"measurement": "remaining activity at 1 µM", "setting": "[18]", "result": 89, "unit": "%"}, {"measurement": "remaining activity at 1 µM", "setting": "[19]", "result": 99, "unit": "%"}, {"measurement": "remaining activity at 1 µM", "setting": "[20]", "result": 22, "unit": "%"}, {"measurement": "remaining activity at 1 µM", "setting": "[21]", "result": 9.6, "unit": "%"}, {"measurement": "remaining activity at 1 µM", "setting": "[22]", "result": 100, "unit": "%"}, {"measurement": "remaining activity at 1 µM", "setting": "[23]", "result": 100, "unit": "%"}, {"measurement": "remaining activity at 1 µM", "setting": "[24]", "result": 100, "unit": "%"}, {"measurement": "remaining activity at 1 µM", "setting": "[25]", "result": 100, "unit": "%"}, {"measurement": "% Ctrl @ 1000 nM", "setting": "[26]", "result": 18, "unit": "%"}, {"measurement": "Tumor Size on day34", "setting": "[27]; Day34 (PG-D21)", "result": "454.63 mm^3 and 454.63 ± 60.72 mm^3"}, {"measurement": "T/C", "setting": "[27]; day34", "result": 20.09, "unit": "%"}, {"measurement": "TGI", "setting": "[27]; day34, vs vehicle", "result": 79.91, "unit": "%"}, {"measurement": "remaining activity at 1 µM", "setting": "[28]", "result": 92, "unit": "%"}, {"measurement": "remaining activity at 1 µM", "setting": "[29]", "result": 88, "unit": "%"}, {"measurement": "remaining activity at 1 µM", "setting": "[30]", "result": 100, "unit": "%"}, {"measurement": "remaining activity at 1 µM", "setting": "[31]", "result": 75, "unit": "%"}, {"measurement": "remaining activity at 1 µM", "setting": "[32]", "result": 31, "unit": "%"}, {"measurement": "remaining activity at 1 µM", "setting": "[33]", "result": 84, "unit": "%"}, {"measurement": "remaining activity at 1 µM", "setting": "[34]", "result": 97, "unit": "%"}, {"measurement": "remaining activity at 1 µM", "setting": "[35]", "result": 95, "unit": "%"}]}]}
